Measured values published in patent publication US20160228584A1, “18F -GLUTATHIONE CONJUGATE AS A PET TRACER FOR IMAGING TUMORS OR NEUROLOGICAL DISORDERS THAT OVEREXPRESS L-PGDS ENZYME” (National Tsing Hua University, priority 2015, published 2016).
One block for each compound: values may come before it.

Columns and labels:
[1] = tested on: C6 glioma brain tumor; assay: PET imaging of C6-glioma rat brain tumor; type: in vivo; conditions: tail vein injection, three cross sections
Procedure: All studies involving animals were conducted in compliance with federal and institutional guidelines. Two weeks before imaging, healthy male SD rats were stereotactically inoculated in the right hemisphere with 1.0×10^5 C6 glioma cells (American Type Tissue Collection).
After C6 glioma cells were injected into the striatum of the SD rats, the animals were placed on heating pad until they have entirely recovered. When the xenografted tumor size has grown to a size of 1-2 mm in diameter, the animals were transferred to the animal facility under control by the research staff every morning. […] Prior to imaging, all rats were affixed with venous and arterial catheters. The in vivo xenograft C6 glioma was imaged 2 weeks after transplantation procedure, until the volume of the tumor reached 3 mm-5 mm in diameter, well-demarcated from normal brain tissue. Regular oral feeding was proceeded after the animals were recovered from anesthesia.
PET scanning experiments were performed within 72 hours of MRI experiment that used to confirm a successful inoculation of tumors by administering [^18F] FBuEA-GS3 via tail vein injection. Both machines of microPET and nanoPET/CT were employed.
Data were collected in list-mode format for 120 minutes. For reconstruction, the dynamic PET acquisition was divided into six 20-min frames over the scanning duration. […]

[2] = Ex vivo analysis of biodistribution; type: in vivo; conditions: rat
From the text: The specimens included 1) organ tissues such as brain, liver, spleen, heart, kidney, lung, colon, small bowel, stomach, testes, skull, and muscle, and 2) body fluids such as blood and urine. These specimens were submitted for counting the radioactivity using a solid scintillation gamma counter (Packard 5000, Packard Instrument Co. laboratory). The counting value of each specimen was further divided by the sample weight to give the final expression as percentage of injection dose per sample weight (% ID/g).

[3] = tested on: C6 glioma; assay: Cellular uptake of radiotracer in tumor cells; type: cell-based
Procedure: The time point of addition of radio tracer was staggered such that every group could be harvested concurrently. At various times of 0.25, 0.5, 1.5, 3 and 5 h, the collection of the medium was progressing. During harvesting, the radioactive medium was collected from each of the wells, followed by rinsing with PBS […] twice. The medium and rinses (1.5 mL) were combined for counting; the counts were treated as extracellular radioactivity. Subsequently, the cells were lysed with 0.25% trypsin-EDTA ([…]) and the wells were rinsed with PBS twice. Both cells and rinses (1.5 mL) were combined for counting; the counts were treated as intracellular radioactivity. Radioactivity was measured using a scintillation gamma counter (Packard 5000, Packard Instrument Co. laboratory) and decay was corrected. Samples were performed triplicated at each time point for all uptake studies.
The uptake ratio was calculated according to the following expression:
Uptake ratio(%)=Countintracellular=Countextracellular+Countintracellular)×100%

[4] = target: GST-π (Homo sapiens, UniProt P09211); assay: Radioligand enzymatic binding assay (gel filtration HPLC); conditions: GSTP1
Procedure: (§1) The flow rate was 1 mL/min.
(§2) L-PGDS catalyzes the […] of prostaglandin H2 (PGH2), a metabolite (also known as a prostanoid) derived from arachidonic acid (AA) through oxidation and reduction via the catalysis of COX enzymes. For comparison, mPGES-1, the counterpart of L-PGDS that catalyzes the formation of PGE2 from COX-derived PGH2, was also used in this study. […] Thus, GST-P1 and GST-A1-1 enzymes were only used as negative controls.

[5] = target: T1, m-PGES (Homo sapiens, UniProt O14684); assay: as above; conditions: mPGES-1
T1 construct: purchased Cayman Chemical Inc
T1 sequence (O14684 1-152): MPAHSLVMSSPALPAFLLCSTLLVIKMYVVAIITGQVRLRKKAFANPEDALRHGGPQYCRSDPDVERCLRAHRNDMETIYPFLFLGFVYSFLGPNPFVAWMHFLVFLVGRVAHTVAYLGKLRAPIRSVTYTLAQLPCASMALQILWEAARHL
Procedure: as §1, §2

[6] = target: T2, GST-α (Homo sapiens, UniProt P08263); assay: as above; conditions: GSTA1-1
T2 construct: purchased Pro SpecTany Techno Gene Ltd ENZ-469
T2 sequence (P08263 1-222): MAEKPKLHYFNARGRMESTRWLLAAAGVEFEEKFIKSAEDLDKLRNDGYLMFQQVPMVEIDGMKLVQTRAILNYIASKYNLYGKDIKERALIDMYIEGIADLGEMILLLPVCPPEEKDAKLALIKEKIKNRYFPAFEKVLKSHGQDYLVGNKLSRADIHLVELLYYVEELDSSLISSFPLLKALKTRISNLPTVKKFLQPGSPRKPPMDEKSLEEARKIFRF
Procedure: as §1, §2

[7] = target: T3, L-PGDS (Homo sapiens, UniProt P41222); assay: Competitive inhibition of the production of PGD2 from PGH2 catalysed by L-PGDS (Cayman kit, EIA readout); type: biochemical; conditions: 200 μM of each test compound; duplicate; read-out: inhibition of the formation of PGD2 from PGH2
T3 construct: purchased Cayman 10006595
T3 sequence (P41222 23-190): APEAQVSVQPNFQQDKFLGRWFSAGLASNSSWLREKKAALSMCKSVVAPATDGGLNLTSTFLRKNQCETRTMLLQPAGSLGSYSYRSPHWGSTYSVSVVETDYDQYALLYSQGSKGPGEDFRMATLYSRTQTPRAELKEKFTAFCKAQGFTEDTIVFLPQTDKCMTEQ

radioactivity in the brain ([2]; brain, 1.0-1.5 mCi injected): 0.05 % ID/g
distribution of radioactivity (in words) ([2]; fourteen tissue samples): mainly localized in the excretory system
binding affinity (in words) [4]: weak binding affinities
binding affinity (in words) [5]: did not show any binding affinity
binding affinity (in words) [6]: weak binding affinities
SMILES: CCC(CSC[C@@H](NC(=O)CC[C@@H](N)C(=O)O)C(=O)NCC(=O)O)C(=O)c1ccc(OCC(=O)NCCCC[18F])c(Cl)c1Cl (stereo partly drawn) [[^18F]FBuEA-GS 3, glutathione conjugate of fluorine-18-labeled fluorobutyl ethacrynic amide]
PET imaging of brain tumor (in words) [1]: clear hot spot coinciding to the tumor region detected by MRI imaging
time to reach steady state of accumulation ([3]; cellular uptake): approximately 15 min

SMILES: O=c1ccn([C@@H]2O[C@H](CO)[C@@H](O)[C@H]2O)c(=O)[nH]1 [uridine]
inhibition at 200 µM [7]: 5.6 ± 14.3%

SMILES: C=C(CC)C(=O)c1ccc(OCC(=O)NCCCC[18F])c(Cl)c1Cl [[^18F]FbuEA 2, fluorine-18-labeled fluorobutyl ethacrynic amide]
uptake in tumor cells versus normal cells (in words) ([3]; tumor cells compared to normal cell): lower uptake in tumor cells compared to normal cell
